{"source": "patent US6652865B2", "about": "“Method and formulation for decreasing statin metabolism” (Gattefosse Holding, priority 2001, dated 2003)", "tested_on": "human intestinal microsomes", "assay": "Reduction in the intestinal barrier effect: simvastatin remaining after incubation with human intestinal microsomes", "conditions": "12 μmol, 1 mg/ml microsomes, 37° C.", "description": "The test is carried out in vitro using human intestinal microsomes containing:\n0.09 nmol/mg of cytochromes P450,\n0.77 nmol/min/mg of cytochromes P450 3 A 4.\n1 mg/ml of microsomes is then placed in contact:\nwith a regenerating system having the following composition:\nfollowed by equilibration at 37° C. for 3 minutes.\n100 μl aliquots are mixed with a solution of 400 μl of a 50/50 mixture of ice and acetonitrile at 0, 15, 30, 60, 120 and 180 minutes. Testosterone is tested in parallel as control component.\nThe conditions for carrying out the HPLC are as follows:\nThe mass spectrometer used is known under the reference PE SCIEX 150."}
{"smiles": "C[C@]12CC[C@H]3[C@@H](CCC4=CC(=O)CC[C@@]43C)[C@@H]1CC[C@@H]2O", "note": "[TESTOSTERONE, Testosterone]", "values": [{"measurement": "PERCENTAGE REMAINING", "setting": "time 0 min", "result": 100, "unit": "%"}, {"measurement": "PERCENTAGE REMAINING", "setting": "time 15 min", "result": "completely disappeared"}, {"measurement": "PERCENTAGE REMAINING", "setting": "time 180 min", "result": 0, "unit": "%"}]}
